27 molecules from patent US9656988B2 (Pharmacyclics LLC, priority 2013, dated 2017) can be followed below.

The experiment concerns the target BTK (Homo sapiens (Human), UniProt Q06187). Description: Btk in vitro inhibitory activity (one of Method A TR-FRET, Method B electrophoretic mobility shift, Method C radiometric filter binding). The class given is biochemical. Background: Mobility shift assays separate free from complexed probe on a gel.
Setting [1] is: determined using one of the methods of Example 355a, 355b and 355c, read-out: BTK IC50.

Where two headings read alike, the source gives them in different places.

BTK, sequence (Q06187 whole entry): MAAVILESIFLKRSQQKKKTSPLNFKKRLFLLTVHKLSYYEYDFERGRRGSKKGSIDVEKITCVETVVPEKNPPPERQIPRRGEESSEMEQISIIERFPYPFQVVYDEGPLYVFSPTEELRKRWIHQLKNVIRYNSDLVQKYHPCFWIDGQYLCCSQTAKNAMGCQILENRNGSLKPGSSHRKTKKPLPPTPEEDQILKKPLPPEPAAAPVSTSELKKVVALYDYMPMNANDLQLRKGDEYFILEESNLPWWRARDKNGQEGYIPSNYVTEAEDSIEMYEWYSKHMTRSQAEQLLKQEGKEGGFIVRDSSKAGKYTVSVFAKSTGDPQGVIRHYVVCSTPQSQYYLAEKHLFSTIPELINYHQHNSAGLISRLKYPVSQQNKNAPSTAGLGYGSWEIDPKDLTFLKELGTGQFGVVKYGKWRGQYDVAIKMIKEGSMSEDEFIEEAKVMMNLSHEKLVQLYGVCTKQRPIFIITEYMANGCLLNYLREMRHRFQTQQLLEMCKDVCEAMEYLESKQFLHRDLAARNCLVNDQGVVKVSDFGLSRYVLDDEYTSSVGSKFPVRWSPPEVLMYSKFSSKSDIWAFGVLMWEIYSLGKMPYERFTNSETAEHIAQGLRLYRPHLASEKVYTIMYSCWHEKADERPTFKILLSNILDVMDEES

Take `C[C@@H]1[C@H](NC(=O)N(C)C)CCCN1c1cnc(C(N)=O)c(Nc2ccc(C3CCN(C4CC4)CC3)cc2)n1` [Example 237, 3-(4-(1-cyclopropylpiperidin-4-yl)phenylamino)-5-((2R,3R)-3-(3,3-dimethylureido)-2-methylpiperidin-1-yl)pyrazine-2-carboxamide]: the IC50 (in general, the concentration that gives 50% inhibition) is < 10 nM (Btk (IC50)) and < 10 nM under setting [1].

As to `C[C@@H]1[C@H](NC(=O)N(C)C)CCCN1c1cnc(C(N)=O)c(Nc2ccc(C3CCN(C4CCC4)CC3)cc2)n1` [Example 238, 3-(4-(1-cyclobutylpiperidin-4-yl)phenylamino)-5-((2R,3R)-3-(3,3-dimethylureido)-2-methylpiperidin-1-yl)pyrazine-2-carboxamide], the IC50 was < 10 nM under setting [1] and < 10 nM (read-out: Btk (IC50)).

For the molecule `C[C@@H]1[C@H](NC(=O)N(C)C)CCCN1c1cnc(C(N)=O)c(Nc2ccc(C3(C(F)(F)F)CC3)cc2)n1` [Example 239, 5-((2R,3R)-3-(3,3-dimethylureido)-2-methylpiperidin-1-yl)-3-(4-(1-(trifluoromethyl)cyclopropyl)phenylamino)pyrazine-2-carboxamide], the IC50 was < 10 nM under setting [1] and < 10 nM (read-out: Btk (IC50)).

`C[C@@H]1[C@H](NC(=O)N(C)C)CCCN1c1cnc(C(N)=O)c(Nc2ccc(C3(C#N)CC3)cc2)n1` [Example 240, 3-(4-(1-cyanocyclopropyl)phenylamino)-5-((2R,3R)-3-(3,3-dimethylureido)-2-methylpiperidin-1-yl)pyrazine-2-carboxamide]: the IC50 was < 10 nM under setting [1] and < 10 nM (read-out: Btk (IC50)).

For the molecule `C[C@@H]1[C@H](NC(=O)N(C)C)CCCN1c1cnc(C(N)=O)c(Nc2ccc(C3(C(N)=O)CC3)cc2)n1` [Example 241, 3-(4-(1-carbamoylcyclopropyl)phenylamino)-5-((2R,3R)-3-(3,3-dimethylureido)-2-methylpiperidin-1-yl)pyrazine-2-carboxamide], under setting [1], the IC50 was < 10 nM.

On to `Cc1cc(Nc2nc(N3CCC[C@@H](NC(=O)N(C)C)[C@H]3C)cnc2C(N)=O)sn1` [Example 242, 5-((2R,3R)-3-(3,3-dimethylureido)-2-methylpiperidin-1-yl)-3-(3-methylisothiazol-5-ylamino)pyrazine-2-carboxamide], for which the half-inhibitory concentration (IC50) under setting [1] is < 10 nM.

In the case of `CC(C)Oc1ccc(Nc2nc(N3CCC[C@@H](NC(=O)N(C)C)[C@H]3C)cnc2C(N)=O)cc1` [Example 243, 5-((2R,3R)-3-(3,3-dimethylureido)-2-methylpiperidin-1-yl)-3-(4-isopropoxyphenylamino)pyrazine-2-carboxamide], under setting [1], the IC50 is < 10 nM.

As for `C[C@@H]1[C@H](NC(=O)N(C)C)CCCN1c1cnc(C(N)=O)c(Nc2ccc(S(C)(=O)=O)cc2)n1` [Example 244, 5-((2R,3R)-3-(3,3-dimethylureido)-2-methylpiperidin-1-yl)-3-(4-(methylsulfonyl)phenylamino)pyrazine-2-carboxamide], under setting [1], the IC50 was < 10 nM.

As for `C[C@@H]1[C@H](NC(=O)N(C)C)CCCN1c1cnc(C(N)=O)c(Nc2ccc(C3(C)CCN(C4CCC4)CC3)cc2)n1` [Example 246, 3-(4-(1-cyclobutyl-4-methylpiperidin-4-yl)phenylamino)-5-((2R,3R)-3-(3,3-dimethylureido)-2-methylpiperidin-1-yl)pyrazine-2-carboxamide], the IC50 under setting [1] was < 10 nM and the IC50 (read-out: Btk (IC50)) is < 10 nM.

As to `C[C@@H]1[C@H](NC(=O)N(C)C)CCCN1c1cnc(C(N)=O)c(Nc2ccc(C3(C)CCN(C4CC4)CC3)cc2)n1` [Example 247, 3-(4-(1-cyclopropyl-4-methylpiperidin-4-yl)phenylamino)-5-((2R,3R)-3-(3,3-dimethylureido)-2-methylpiperidin-1-yl)pyrazine-2-carboxamide], the IC50 runs as follows: under setting [1], < 10 nM; (read-out: Btk (IC50)) < 10 nM.

As for `C[C@@H]1[C@H](NC(=O)N(C)C)CCCN1c1cnc(C(N)=O)c(Nc2ccc(C3(C#N)CCCC3)cc2)n1` [Example 248, 3-(4-(1-cyanocyclopentyl)phenylamino)-5-((2R,3R)-3-(3,3-dimethylureido)-2-methylpiperidin-1-yl)pyrazine-2-carboxamide], the IC50 is, setting by setting: under setting [1], < 10 nM; (read-out: Btk (IC50)) < 10 nM.

As for `C[C@@H]1[C@H](NC(=O)N(C)C)CCCN1c1cnc(C(N)=O)c(Nc2ccc(C3(C(N)=O)CCCC3)cc2)n1` [Example 249, 3-(4-(1-carbamoylcyclopentyl)phenylamino)-5-((2R,3R)-3-(3,3-dimethylureido)-2-methylpiperidin-1-yl)pyrazine-2-carboxamide], the IC50 was < 10 nM under setting [1] and < 10 nM (read-out: Btk (IC50)).

Turning to `C[C@@H]1[C@H](NC(=O)N(C)C)CCCN1c1cnc(C(N)=O)c(Nc2ccc(C3(C#N)CCN(C4CCCC4)CC3)cc2)n1` [Example 250, 3-(4-(4-cyano-1-cyclopentylpiperidin-4-yl)phenylamino)-5-((2R,3R)-3-(3,3-dimethylureido)-2-methylpiperidin-1-yl)pyrazine-2-carboxamide], the IC50 is < 10 nM under setting [1] and < 10 nM (read-out: Btk (IC50)).

Consider `C[C@@H]1[C@H](NC(=O)N(C)C)CCCN1c1cnc(C(N)=O)c(Nc2ccc(C3(C(N)=O)CCN(C4CCCC4)CC3)cc2)n1` [Example 251, 3-(4-(4-carbamoyl-1-cyclopentylpiperidin-4-yl)phenylamino)-5-((2R,3R)-3-(3,3-dimethylureido)-2-methylpiperidin-1-yl)pyrazine-2-carboxamide], for which, for the setting “read-out: Btk (IC50)”, the concentration for half-maximal inhibition (IC50) is < 10 nM.

Take `C[C@@H]1[C@H](N2CCN(C)C2=O)CCCN1c1cnc(C(N)=O)c(Nc2ccc(C3(C)CCNCC3)cc2)n1` [Example 252, 5-((2R,3R)-2-methyl-3-(3-methyl-2-oxoimidazolidin-1-yl)piperidin-1-yl)-3-(4-(4-methylpiperidin-4-yl)phenylamino)pyrazine-2-carboxamide]: the IC50 is, setting by setting: (Btk (IC50)) < 10 nM; under setting [1], < 10 nM.

Regarding `C[C@@H]1[C@H](N2CCN(C)C2=O)CCCN1c1cnc(C(N)=O)c(Nc2ccc(C3(C)CCN(C4CCCC4)CC3)cc2)n1` [Example 253, 3-(4-(1-cyclopentyl-4-methylpiperidin-4-yl)phenylamino)-5-((2R,3R)-2-methyl-3-(3-methyl-2-oxoimidazolidin-1-yl)piperidin-1-yl)pyrazine-2-carboxamide], the 50% inhibitory concentration (IC50) under setting [1] was < 10 nM.

As to `CCC(=O)N1CCC(C)(c2ccc(Nc3nc(N4CCC[C@@H](N5CCN(C)C5=O)[C@H]4C)cnc3C(N)=O)cc2)CC1` [Example 255, 3-(4-(4-methyl-1-propionylpiperidin-4-yl)phenylamino)-5-((2R,3R)-2-methyl-3-(3-methyl-2-oxoimidazolidin-1-yl)piperidin-1-yl)pyrazine-2-carboxamide], the IC50 reads like this: under setting [1], < 10 nM; (read-out: Btk (IC50)) < 10 nM.

Take `CN1CCN([C@@H]2CCCN(c3cnc(C(N)=O)c(Nc4ccc(C5CCN(C6CCCC6)CC5)cc4)n3)C2)C1=O` [Example 256, (R)-3-(4-(1-cyclopentylpiperidin-4-yl)phenylamino)-5-(3-(3-methyl-2-oxoimidazolidin-1-yl)piperidin-1-yl)pyrazine-2-carboxamide]: the IC50 runs as follows: under setting [1], < 10 nM; (read-out: Btk (IC50)) < 10 nM.

Regarding `CCN1CCC(c2ccc(Nc3nc(N4CCC[C@@H](N5CCN(C)C5=O)C4)cnc3C(N)=O)cc2)CC1` [Example 257, (R)-3-(4-(1-ethylpiperidin-4-yl)phenylamino)-5-(3-(3-methyl-2-oxoimidazolidin-1-yl)piperidin-1-yl)pyrazine-2-carboxamide], the IC50 by setting is: under setting [1], < 10 nM; (read-out: Btk (IC50)) < 10 nM.

Regarding `CN1CCN([C@@H]2CCCN(c3cnc(C(N)=O)c(Nc4ccc(C5CCN(C6CCC6)CC5)cc4)n3)C2)C1=O` [Example 258], the IC50 under setting [1] was < 10 nM.

As to `CN1CCN([C@@H]2CCCN(c3cnc(C(N)=O)c(Nc4ccc(C5CCN(C6CC6)CC5)cc4)n3)C2)C1=O` [Example 259, (R)-3-(4-(1-cyclopropylpiperidin-4-yl)phenylamino)-5-(3-(3-methyl-2-oxoimidazolidin-1-yl)piperidin-1-yl)pyrazine-2-carboxamide], the IC50 under setting [1] is < 10 nM and the IC50 (read-out: Btk (IC50)) was < 10 nM.

Consider `CN1CCN([C@@H]2CCCN(c3cnc(C(N)=O)c(Nc4ccc(N5CCS(=O)(=O)CC5)cc4)n3)C2)C1=O` [Example 260, (R)-5-(3-(3-methyl-2-oxoimidazolidin-1-yl)piperidin-1-yl)-3-(4-(1,1-dioxothiomorpholino)phenylamino)pyrazine-2-carboxamide], for which the IC50 is < 10 nM under setting [1] and < 10 nM (read-out: Btk (IC50)).

With `CN1CCN([C@@H]2CCCN(c3cnc(C(N)=O)c(Nc4ccccc4)n3)C2)C1=O` [Example 261, (R)-5-(3-(3-methyl-2-oxoimidazolidin-1-yl)piperidin-1-yl)-3-(phenylamino)pyrazine-2-carboxamide], the IC50 was 10 to 100 nM. Besides, the IC50 under setting [1] lay within 10 to 100 nM.

For `CN1CCN([C@@H]2CCCN(c3cnc(C(N)=O)c(Nc4ccc(C5(C(F)(F)F)CC5)cc4)n3)C2)C1=O` [Example 262, (R)-5-(3-(3-methyl-2-oxoimidazolidin-1-yl)piperidin-1-yl)-3-(4-(1-(trifluoromethyl)cyclopropyl)phenylamino)pyrazine-2-carboxamide], under setting [1], the IC50 fell in the range of 10 to 100 nM.

Regarding `CN1CCN([C@@H]2CCCN(c3cnc(C(N)=O)c(Nc4ccc(C5(C)CCN(C6CC6)CC5)cc4)n3)C2)C1=O` [Example 263, (R)-3-(4-(1-cyclopropyl-4-methylpiperidin-4-yl)phenylamino)-5-(3-(3-methyl-2-oxoimidazolidin-1-yl)piperidin-1-yl)pyrazine-2-carboxamide], the IC50 (read-out: Btk (IC50)) was < 10 nM.

Regarding `CC(C)N1CCC(C)(c2ccc(Nc3nc(N4CCC[C@@H](N5CCN(C)C5=O)C4)cnc3C(N)=O)cc2)CC1` [Example 264, (R)-3-(4-(1-isopropyl-4-methylpiperidin-4-yl)phenylamino)-5-(3-(3-methyl-2-oxoimidazolidin-1-yl)piperidin-1-yl)pyrazine-2-carboxamide], the IC50 (read-out: Btk (IC50)) is < 10 nM.

Regarding `CN1CCN([C@@H]2CCCN(c3cnc(C(N)=O)c(Nc4ccc(C5(C)CCN(C6CCCC6)CC5)cc4)n3)C2)C1=O` [Example 267, (R)-3-(4-(1-cyclopentyl-4-methylpiperidin-4-yl)phenylamino)-5-(3-(3-methyl-2-oxoimidazolidin-1-yl)piperidin-1-yl)pyrazine-2-carboxamide], the half-inhibitory concentration (IC50) was < 10 nM under setting [1] and < 10 nM (read-out: Btk (IC50)).
